# Source: paper PMC7280531, “A PROTAC peptide induces durable β-catenin degradation and suppresses Wnt-dependent intestinal cancer” (Cell Discovery, 2020)
# Where a SMILES comes first, the peptide text is derived from it. Bridges are numbered along the chain shown (N, C = ends). [ ]: non-standard residue; d: D form. S5 = C=CCCC[C@](C)(N)C(=O)O; Ahx = NCCCCCC(=O)O
# How the values were obtained:
# LoVo cells [1] = test: Cell proliferation assay (CCK-8), LoVo cells; type: cell-based; conditions: 6 days
# Procedure: Equal number of cells (8000–10,000 cells) were seeded in the 24-well plates and then subjected to different treatments. The cell numbers were counted every 24 h with the CCK-8 cell counting kit (Dojindo Molecular Technologies) according to manufacturer’s instructions.
# Wnt/β-catenin signaling = test: Topflash luciferase reporter assay in HEK293T cells; type: cell-based; conditions: Wnt3a CM, 24 h
# Procedure: Dual luciferase reporter assay system (Promega) was used. HEK293T cells, cultured in 24-well plates, were transfected with 200 ng Topflash plasmid and 30 ng Renilla plasmid for 3-well cells. […] Then harvested the cells for luciferase activity measurement.
# intestinal tumors = test: Intestinal tumors in APC^min/+ mice
# Procedure: Because APC^min/+ mice can develop intestinal tumors around 10 weeks-old[26], the 11 weeks-old APC^min/+ mice were intraperitoneally injected with 30 mg/kg vehicle DMSO or peptides at every other day for 14 days. Then the mice were sacrificed for analysis of intestinal tumors.
# Tumor number of the whole intestinal tract was analyzed in the lower panel.
# β-catenin = β-catenin immunoblotting in colorectal cancer cells (HCT116, SW480, LoVo); type: cell-based; conditions: for β-catenin protein level, MSAB versus xStAx-VHLL: 50 μM xStAx-VHLL
# Procedure: Relative
# β-catenin protein level was quantified with ImageJ and normalized to GAPDH. Data […]
# (b) LoVo cells were treated with 50 μM xStAx (xS), 50 μM
# immunoblotting. (c, d) LoVo (c) and SW480 (d) cells were treated with different
# wild-type organoids = test: Wild-type mouse intestinal organoid culture; type: cell-based; conditions: 10 μM peptides
# Procedure: Fig. 5 xStAx-VHLL inhibits the growth of wild-type and APC^−/− organoids. a Wild-type organoids were cultured with 10 μM peptides for 4 days. The trypan blue staining at day 4 indicated the dead organoids. Scale bar = 100 μm. […] Relative β-catenin and cleaved caspase3 protein levels were quantified. e Wild-type organoids were cultured with 10 μM peptides for 3 h and harvested for qPCR analysis of Wnt target genes. f APC^−/− organoids were cultured with 50 μM peptides for 4 days. The trypan blue staining at day 4 indicated the dead organoids. Scale bar = 100 μm. […] Relative β-catenin and cleaved caspase3 protein levels were quantified. The relative band intensity was quantified with ImageJ and normalized to GAPDH levels.
# Mouse intestinal crypts isolation and organoid culture were performed as previously described. Briefly, mouse intestine was cut longitudinally and washed three times with cold PBS. Villi were carefully scraped away and small pieces (5 mm) of intestine were incubated in 0.5 M EDTA in PBS for 40 min on ice. These pieces were then vigorously suspended in cold PBS and the mixture was passed through 70 μm cell strainer (BD Biosciences). The crypt fraction was enriched through centrifugation (3 min at 300–400 g). Then the crypts were embedded in Matrigel (BD Biosciences) and seeded on 48-well or 24-well plates. The intestinal organoid culture medium consists of Advanced DMEM/F12 supplemented with Penicillin/Streptomycin, GlutaMAX-I, N2, B27 and N-acetylcysteine (Sigma-Aldrich) and combination of growth factors including EGF (50 ng/mL, Invitrogen), Noggin (100 ng/mL, R&D) and R-spondin1 (500 ng/mL). The organoids were treated with proper dilution of peptides in the medium.
# Supplementary Fig. S7. xStAx-VHLL restricts Lgr5+ intestinal stem cell
# population and cell viability in intestinal organoids.
# The organoids derived from the small intestine of Lgr5-GFP mice were treated with
# 10 μM peptides for 36 h and then collected for CytoFLEX flow cytometry to count
# Lgr5+ intestinal stem cells (a) or viable cells (b). Data from 3 independent
# (1 picture or pasted object on this page, not shown here)
# LoVo cells [2] = test: Tumor formation in nude mice from pretreated LoVo cells; type: in vivo, BALB/C nude mice
# Procedure: Next, to examine the influence of the peptides on tumor formation, 3 × 10^6 LoVo cells were pretreated with each peptide at 50 μM for 24 h, followed by subcutaneous injection into BALB/C nude mice. After 3 weeks when tumors were visible, the mice were sacrificed for comparison of subcutaneous tumors among different groups.
# LoVo cells cultured were pretreated with DMSO pr peptides (50 μM) for 24 h. Then the cells were digested with trypsin and centrifuge (3 min at 300–400 g). Cell pellets were washed with cold PBS three times and the cell number was counted. The BALB/C nude mice were subcutaneously injected with 3 × 10^6 cells. Three weeks later, the nude mice were sacrificed and dissected for tumors. Tumor weight was quantified.
# [3] = Lgr5-GFP organoids, 36 h, flow cytometry
smiles,measurement,setting,value
CC[C@H](C)[C@@H]1NC(=O)[C@@](C)(NC(=O)[C@H](CCCNC(=N)N)NC(=O)[C@@H]2CCCN2C(=O)[C@H](Cc2c[nH]c3ccccc23)NC(=O)[C@H](CCCNC(=N)N)NC(=O)[C@H](CCCNC(=N)N)NC(C)=O)CCCC=CCCC[C@@](C)(C(=O)N[C@@H](Cc2c[nH]cn2)C(=O)N[C@H](C(=O)N[C@@H](CCCNC(=N)N)C(=O)N[C@@H](CCCNC(=N)N)C(=O)N[C@H](C(=O)N[C@@H](Cc2c[nH]c3ccccc23)C(=O)N[C@@H](CCCNC(=N)N)C(=O)NCCCCCC(=O)N[C@@H](C)C(=O)N[C@@H](CC(C)C)C(=O)N[C@@H](C)C(=O)N2CCC[C@H]2C(=O)N[C@@H](Cc2ccc(O)cc2)C(=O)N[C@H](C(=O)N2CCC[C@H]2C(N)=O)[C@@H](C)CC)C(C)C)C(C)C)NC(=O)[C@H](CC(=O)O)NC(=O)[C@H](CC(C)C)NC1=O [xStAx-VHLL] (Ac-RRWPR[S5]ILD[S5]HVRRVWR[Ahx]ALAPYIP-NH2; staple 6-10; N-terminus and C-terminus assumed),proliferation of LoVo cells,"LoVo cells [1]; 50 μM peptides, cell number counted each day",significantly attenuated the proliferation
same,"proliferation of LoVo cells, MSAB versus xStAx-VHLL","LoVo cells [1]; 1 × 10^4 cells, 10 μM MSAB or 50 μM xStAx-VHLL",hampered by xStAx-VHLL
same,inhibition of Wnt-induced Topflash-luciferase compared with small-molecule inhibitors,"Wnt/β-catenin signaling; 70 μM xStAx-VHLL vs 10 μM XAV939, 20 μM PRI-724, 100 μM PNU-74654, 10 μM MSAB",comparable inhibition
same,dose dependence of effect on Wnt signaling (Topflash),Wnt/β-catenin signaling; indicated concentrations,dose-dependent effect on Wnt signaling
same,Wnt3a-induced expression of the Topflash-luciferase reporter,Wnt/β-catenin signaling; peptides 70 μM each,more potent in decreasing the Wnt3a-induced expression of the reporter
same,active β-catenin protein level in small intestine,"intestinal tumors; 30 mg/kg i.p. 7 times, immunoblot, compared with the vehicle group",also decreased
same,intestinal tumor number,"intestinal tumors; 11 weeks-old mice, 30 mg/kg i.p. every other day for 14 days (7 times), vs day 0 or DMSO",dramatically reduced tumor number
same,dose dependence of β-catenin degradation,"β-catenin; CRC cells (HCT116, LoVo, SW480), indicated concentrations, 24 h",dose-dependent manner
same,β-catenin level after wash-out of the peptide,"β-catenin; HCT116, 50 μM peptide 24 h, then fresh medium 24 or 48 h",remained low after 24 h
same,β-catenin degradation in colorectal cancer cells,"β-catenin; HCT116, SW480 or LoVo, 50 μM peptides, 24 h, immunoblot",promotes the degradation of β-catenin
same,"β-catenin protein level, MSAB versus xStAx-VHLL","β-catenin; HCT116 and SW480, 10 μM MSAB, 24 h",decreased β-catenin protein to a comparable level
same,"β-catenin protein level, MSAB versus xStAx-VHLL","β-catenin; LoVo, 10 μM MSAB, 24 h",able to reduce the β-catenin protein level
same,"Wnt signaling target genes Lgr5, Axin2, Cyclin D1 and Myc","wild-type organoids; 3 h, qPCR",remarkably decreased
same,cleaved caspase 3 level,"wild-type organoids; 24 h, immunoblot",increased the cleaved caspase 3 level
same,β-catenin protein level,"wild-type organoids; 24 h, immunoblot",reduced the β-catenin protein level
same,organoid survival and bud formation,wild-type organoids; 4 days,obviously impeded organoid survival and bud formation
same,Lgr5+ intestinal stem cells,wild-type organoids; [3],reduced
same,viable cell population,wild-type organoids; [3],also decreased
same,subcutaneous tumor size and weight,"LoVo cells [2]; 3 × 10^6 LoVo cells pretreated with 50 μM peptide for 24 h, s.c. injection, 3 weeks, n = 10 mice per group",significantly smaller in size and weight
same,β-catenin protein level in tumor extracts,"LoVo cells [2]; tumors from pretreated LoVo cells, immunoblot, compared with other groups",apparently decreased
same,"Wnt target genes Axin2, Cyclin D1 and Myc in tumors","LoVo cells [2]; tumors from pretreated LoVo cells, qPCR",also decreased
